Structures are written as SMILES.

The series can be described thus: Maximum carbon dioxide release temperature of amine compound (DSC after CO2 absorption). The class given is physicochemical. The note with it: amine compound after 24 hours in air at 23° C. and 50% RH; DSC 23 to 250° C., 10° C./minute, nitrogen. On the procedure: (Maximum Carbon Dioxide (CO2) Release Temperature of Amine Compound)
A carbon dioxide detector and a Petri dish were placed in an openable desiccator (inner dimension: 370 mm×260 mm×272 mm). Subsequently the amine compound (5 mmol) was added to the Petri dish in the desiccator and the door was immediately closed to leave the amine compound to stand in the desiccator in an air environment at 23° C. and 50% RH for 24 hours. The initial concentration of carbon dioxide was adjusted to about 400 ppm.
Then the amine compound was removed from the desiccator to give an amine compound with carbon dioxide absorbed. The maximum carbon dioxide release temperature of the amine compound with carbon dioxide absorbed was measured by subjecting the amine compound to DSC as described below. First, differential scanning calorimetry of the amine compound was performed under conditions of a temperature range of 23 to 250° C., a heating rate of 10° C./minute and a nitrogen atmosphere using a differential thermogravimeter (product name DTG-60 made by Shimadzu Corporation). The temperature at which the amount of heat absorbed due to the desorption of carbon dioxide was the maximum was calculated from the DSC curve obtained, and the temperature was determined as the maximum carbon dioxide release temperature of the amine compound.
As for `NCC1CCCC(CN)C1` (centres unmarked) [1,3-BAC, 1,3-bis(aminomethyl)cyclohexane], the “Maximum carbon dioxide release temperature” value stood at 125.7 °C.

Take `NCCN1CCNCC1` [AEP, N-(2-aminoethyl) piperazine]: the “Maximum carbon dioxide release temperature” value came to 81.9 °C.

For `CC1(C)CC(N)CC(C)(CN)C1` (centres unmarked) [IPDA, isophoronediamine], the “Maximum carbon dioxide release temperature” value was determined as 114.4 °C.

In the case of `NCc1cccc(CN)c1` [MXDA, metaxylylenediamine], the “Maximum carbon dioxide release temperature” value was 135.5 °C.

`NC1CCC(CC2CCC(N)CC2)CC1` (centres unmarked) [PACM, 4,4′-methylenebis(cyclohexylamine), reference compound]: the “Maximum carbon dioxide release temperature” value worked out at 53 °C.

Values taken from patent US20240360289A1, “EPOXY RESIN FOAM, CARBON DIOXIDE ABSORBENT, METHOD FOR PRODUCING EPOXY RESIN FOAM, MULTILAYER STRUCTURE AND METHOD FOR PRODUCING SAME” (MITSUBISHI GAS CHEMICAL COMPANY, INC., priority 2021, published 2024).
